Among the test systems are ACHN renal; BT-549 breast; DU-145 prostate; HCT-15 colon; HOP-62 NSCLC; M14 melanoma; MDA-MB-435; OVCAR-3 ovarian; SK-MEL-5 melanoma; SNB-75 CNS.
Common to all, as to experiment: NCI tumour cell line growth inhibition, 48 h

Each structure is given as a SMILES string. Several values for one entry are separate records, joined by “and”; a condition that tells them apart may be missing. Identical values can stand only once.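 Interpolation was linear, between the two tested concentrations surrounding the appropriate level; five concentrations were tested over 48 hours in 96-well plates. GI50 = concentration required for 50% inhibition of growth. At the TGI there is no net growth.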

Regarding `Cc1cc(N(CCCNc2ccnc3cc(Cl)ccc23)Cc2ccco2)nc(N2CCN(C)CC2)n1`, the GI50 was 2.46 µM with ACHN renal; 2.07 µM in the assay with BT-549 breast; 5.69 µM with DU-145 prostate; 2.07 µM with HCT-15 colon; 3.65 µM with HOP-62 NSCLC; 1.85 µM with M14 melanoma. The GI50 in the assay on MDA-MB-435 was 1.69 µM; in the assay on OVCAR-3 ovarian it was 2.87 µM; in the assay with SK-MEL-5 melanoma it was 1.75 µM; in the assay with SNB-75 CNS it was 1.29 µM. Also, the TGI in the assay with ACHN renal was found to be 6.51 µM; in the assay with BT-549 breast, 6.05 µM; in the assay with DU-145 prostate it was 18.8 µM; in the assay with HCT-15 colon, 10.5 µM; with HOP-62 NSCLC it was 14.3 µM; with M14 melanoma it was 3.44 µM. The TGI in the assay on MDA-MB-435 amounted to 3.23 µM; in the assay with OVCAR-3 ovarian, 12.1 µM; with SK-MEL-5 melanoma, 3.17 µM; in the assay with SNB-75 CNS it was 5.56 µM.

Turning to `O=C1OC(C(O)CO)C(O)=C1O` (stereo not given), the GI50 in the assay with ACHN renal is 1540 µM and 1610 µM; in the assay on BT-549 breast, 2190 µM and 2510 µM; in the assay with DU-145 prostate, 1610 µM and 1690 µM; in the assay with HCT-15 colon it was 1860 µM; in the assay on HOP-62 NSCLC, 2420 µM and 2940 µM; with M14 melanoma, 1890 µM and 2290 µM. Further, the GI50 in the assay on MDA-MB-435 is 203 µM and 208 µM; in the assay on OVCAR-3 ovarian, 1560 µM; with SK-MEL-5 melanoma it was 1560 µM and > 4190 µM; with SNB-75 CNS it was 2460 µM and > 4760 µM. Moreover, the TGI was 2940 µM and 3060 µM in the assay with ACHN renal; 4330 µM and > 5710 µM in the assay with BT-549 breast; 3040 µM and 3110 µM with DU-145 prostate; 3450 µM and 3870 µM in the assay with HCT-15 colon; 4800 µM and 6210 µM in the assay with HOP-62 NSCLC; 3570 µM and 4760 µM in the assay on M14 melanoma. The TGI with MDA-MB-435 is 372 µM and 374 µM; in the assay on OVCAR-3 ovarian, 2900 µM; in the assay with SK-MEL-5 melanoma it was 2910 µM and > 5600 µM; in the assay with SNB-75 CNS, 4050 µM and > 6140 µM.

Regarding `C[N+](C)(C)CC1CCCC1=O` (stereo not given), the TGI with ACHN renal was 9.94 µM; with BT-549 breast it was 2.32 µM; with DU-145 prostate, 0.0951 µM; with HCT-15 colon, 7.44 µM; in the assay on HOP-62 NSCLC it was greater than 68 µM; in the assay with M14 melanoma, 2.61 µM. For the same molecule, the TGI came to 3.22 µM with MDA-MB-435, 6.87 µM in the assay on OVCAR-3 ovarian, 12.5 µM in the assay on SK-MEL-5 melanoma and 7.98 µM with SNB-75 CNS.

In the case of `COC1C(N)C(OC2C(Oc3cccc4c(O)c5c(=O)oc6ccc(C)c7c(=O)oc(c34)c5c67)OC(C)C(O)C2(C)O)OC(C)C1O` (stereo not given), the TGI in the assay with ACHN renal stood at 1.5 µM; in the assay on BT-549 breast, 0.214 µM; in the assay with DU-145 prostate it was 1.33 µM; in the assay on HCT-15 colon, 7.55 µM; in the assay with HOP-62 NSCLC it was 0.258 µM; in the assay with M14 melanoma, 0.75 µM. The TGI in the assay on MDA-MB-435 came to 0.219 µM; in the assay with OVCAR-3 ovarian it was 0.406 µM; in the assay with SK-MEL-5 melanoma, 0.265 µM; with SNB-75 CNS, 0.356 µM.

With `Cc1cccc2c3c(sc12)C(c1ccc(Cl)cc1)C(C#N)=C(N)O3` (stereo not given), the GI50 in the assay with ACHN renal is 0.834 µM; in the assay with BT-549 breast, 0.98 µM; in the assay with DU-145 prostate, 0.459 µM; in the assay with HCT-15 colon, 0.374 µM; with HOP-62 NSCLC, 0.515 µM; in the assay with M14 melanoma, 0.326 µM. Also, the GI50 is 0.182 µM in the assay on MDA-MB-435, 0.384 µM with OVCAR-3 ovarian, 0.467 µM in the assay on SK-MEL-5 melanoma and 0.214 µM in the assay with SNB-75 CNS. Further, the TGI with ACHN renal was 14.1 µM; in the assay on BT-549 breast, 6.9 µM; in the assay on DU-145 prostate it was 11.6 µM; with HCT-15 colon, 2.81 µM; in the assay with HOP-62 NSCLC, 13.8 µM; in the assay with M14 melanoma it was 12.8 µM. Further, the TGI turned out to be 0.42 µM in the assay with MDA-MB-435, 3.16 µM with OVCAR-3 ovarian, 4.11 µM in the assay on SK-MEL-5 melanoma and 0.71 µM in the assay on SNB-75 CNS.

On to `N#CCN1CCn2c1nsc2=S`, for which the GI50 in the assay on ACHN renal, with BT-549 breast, in the assay with DU-145 prostate, in the assay with HCT-15 colon, in the assay on HOP-62 NSCLC and in the assay on M14 melanoma was greater than 100 µM each time. Besides, the GI50 with MDA-MB-435, in the assay with OVCAR-3 ovarian, in the assay with SK-MEL-5 melanoma and with SNB-75 CNS was greater than 100 µM in each case. For the same molecule, the TGI with ACHN renal, in the assay on BT-549 breast, in the assay with DU-145 prostate, with HCT-15 colon, in the assay with HOP-62 NSCLC and in the assay on M14 melanoma was greater than 100 µM throughout. Also, the TGI with MDA-MB-435, in the assay with OVCAR-3 ovarian, with SK-MEL-5 melanoma and in the assay on SNB-75 CNS was greater than 100 µM throughout.

Regarding `c1ccc2cc(-c3n(Cc4ccc5ccccc5n4)c4ccccc4[n+]3Cc3ccc4ccccc4n3)ccc2c1`, the GI50 in the assay on ACHN renal is 0.717 µM; in the assay with BT-549 breast, 0.316 µM; in the assay with DU-145 prostate it was 0.395 µM; with HCT-15 colon, 1.6 µM; in the assay with HOP-62 NSCLC, 0.363 µM; with M14 melanoma, 0.307 µM. Besides, the GI50 with MDA-MB-435 is 0.369 µM; with OVCAR-3 ovarian, 0.314 µM; with SK-MEL-5 melanoma it was 0.201 µM; in the assay on SNB-75 CNS, 0.19 µM. The TGI in the assay with ACHN renal worked out at 1.95 µM; in the assay with BT-549 breast, 1.25 µM; with DU-145 prostate, 1.65 µM; in the assay on HCT-15 colon, 3.18 µM; in the assay on HOP-62 NSCLC it was 1.49 µM; with M14 melanoma it was 1.53 µM. Further, the TGI in the assay with MDA-MB-435 is 1.35 µM; in the assay with OVCAR-3 ovarian, 1.39 µM; in the assay with SK-MEL-5 melanoma, 0.422 µM; in the assay on SNB-75 CNS, 0.746 µM.
